ChEMBL document CHEMBL1201862, “PubChem BioAssay data set” (2004)
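Compound exposure: 48 hours, 5 concentrations, 96-well plates. Abbreviation: GI50, concentration required for 50% inhibition of growth.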 Activity calls are given as the source filed them. Rule as the data show it: active = GI50 up to about 1.1 µM and inactive = higher.

Key:
Test in all cases: inhibition of tumour cell growth, NCI panel, 48 h
786-0 = tested on: 786-0
CAKI-1 = tested on: CAKI-1
UACC-62 = tested on: UACC-62
Malme-3M = tested on: Malme-3M
RXF 393 = tested on: RXF 393
CCRF-CEM = tested on: CCRF-CEM
TK-10 = tested on: TK-10
PC-3 = tested on: PC-3
SK-MEL-2 = tested on: SK-MEL-2
MOLT-4 = tested on: MOLT-4
HOP-62 = tested on: HOP-62
OVCAR-8 = tested on: OVCAR-8
DU-145 = tested on: DU-145
OVCAR-3 = tested on: OVCAR-3
MDA-MB-435 = tested on: MDA-MB-435
OVCAR-4 = tested on: OVCAR-4
MCF7 = tested on: MCF7
ACHN = tested on: ACHN
EKVX = tested on: EKVX
SNB-75 = tested on: SNB-75

Measured: GI50

NN
inactive: 786-0 204 µM | CAKI-1 445 µM | UACC-62 358 µM | Malme-3M 881 µM | RXF 393 453 µM | CCRF-CEM 72.3 µM | TK-10 893 µM | PC-3 628 µM | SK-MEL-2 607 µM | MOLT-4 193 µM | HOP-62 259 µM | OVCAR-8 406 µM | DU-145 793 µM | OVCAR-3 431 µM | MDA-MB-435 210 µM | OVCAR-4 625 µM | MCF7 179 µM | ACHN 593 µM | EKVX 883 µM | SNB-75 851 µM

O=C(O)c1ccccc1.[Ag]
inactive: 786-0 17.3 µM | CAKI-1 5.5 µM | UACC-62 18.1 µM | Malme-3M 1.7 µM | RXF 393 18.2 µM | CCRF-CEM 1.99 µM | TK-10 7.11 µM | PC-3 15.8 µM | SK-MEL-2 14.4 µM | MOLT-4 2.55 µM | HOP-62 21.3 µM | OVCAR-8 28.1 µM | DU-145 17.5 µM | OVCAR-3 12.9 µM | MDA-MB-435 16.8 µM | OVCAR-4 14.7 µM | MCF7 13.3 µM | ACHN 6.47 µM | EKVX 26.6 µM | SNB-75 3.36 µM
